Test results reported in US20110053907A1, “SUBSTITUTED PYRIMIDINES AND TRIAZINES AND THEIR USE IN CANCER THERAPY” (Auckland UniServices Limited, priority 2008, published 2011).
Structures can show the parent of a compound that is named as a salt.

Legend:
[1] = molecular target: p110α/p85 (Homo sapiens, UniProt P42336); test: Reversible inhibition of isolated enzyme, lipid kinase assay; format: biochemical; details: recombinant enzyme, 100 μM ATP, 1 hr, average of two experiments
Protocol: Compounds were evaluated for their ability to inhibit Class I PI 3-kinase enzymes p110δ/p85, p110α/p85, and p110β/p85. Reaction mixtures comprising 0.1 μg of a recombinant enzyme, 10 μg of L-α-phosphatidylinositol, and 2× Lipid Kinase Buffer (40 mM Tris-HCl, pH 7.4, 200 mM NaCl, 1 mM EDTA), which contains either DMSO only as a control or the test compound in DMSO (the final DMSO concentration is 1%), were activated by the addition of an ATP mix (5 mM MgCl2, 100 μM ATP, and 0.1 μL [γ^33P]ATP). Reactions were incubated at room temperature for 1 hr, and then stopped by the addition of 1M HCl. The lipids were then extracted using a two step procedure. Firstly, 200 μL of chloroform/methanol (1:1) was added, the biphasic reactions mixed and centrifuged briefly, and the inorganic phase was removed and discarded. Following this, 80 μL of methanol:HCl (1:1) was added and the same procedure followed. The organic phase (70 μL) was then transferred to a clean 1.6 mL tube and the reactions were dried using a Speedvac, with no heating, for 30 min. The reactions were spotted onto TLC plates (Merck Ltd) and developed for 1 hr in propanol-1:2 M acetic acid (13:7). The TLC plates were then dried at room temperature and quantified using a phosphorimager (StormImager, Amersham). Nine compound concentrations were used for each test compound to determine its IC50 value. Each experiment was performed twice and the average IC50 value is used herein.

Chain of p110α/p85 (P42336 whole entry): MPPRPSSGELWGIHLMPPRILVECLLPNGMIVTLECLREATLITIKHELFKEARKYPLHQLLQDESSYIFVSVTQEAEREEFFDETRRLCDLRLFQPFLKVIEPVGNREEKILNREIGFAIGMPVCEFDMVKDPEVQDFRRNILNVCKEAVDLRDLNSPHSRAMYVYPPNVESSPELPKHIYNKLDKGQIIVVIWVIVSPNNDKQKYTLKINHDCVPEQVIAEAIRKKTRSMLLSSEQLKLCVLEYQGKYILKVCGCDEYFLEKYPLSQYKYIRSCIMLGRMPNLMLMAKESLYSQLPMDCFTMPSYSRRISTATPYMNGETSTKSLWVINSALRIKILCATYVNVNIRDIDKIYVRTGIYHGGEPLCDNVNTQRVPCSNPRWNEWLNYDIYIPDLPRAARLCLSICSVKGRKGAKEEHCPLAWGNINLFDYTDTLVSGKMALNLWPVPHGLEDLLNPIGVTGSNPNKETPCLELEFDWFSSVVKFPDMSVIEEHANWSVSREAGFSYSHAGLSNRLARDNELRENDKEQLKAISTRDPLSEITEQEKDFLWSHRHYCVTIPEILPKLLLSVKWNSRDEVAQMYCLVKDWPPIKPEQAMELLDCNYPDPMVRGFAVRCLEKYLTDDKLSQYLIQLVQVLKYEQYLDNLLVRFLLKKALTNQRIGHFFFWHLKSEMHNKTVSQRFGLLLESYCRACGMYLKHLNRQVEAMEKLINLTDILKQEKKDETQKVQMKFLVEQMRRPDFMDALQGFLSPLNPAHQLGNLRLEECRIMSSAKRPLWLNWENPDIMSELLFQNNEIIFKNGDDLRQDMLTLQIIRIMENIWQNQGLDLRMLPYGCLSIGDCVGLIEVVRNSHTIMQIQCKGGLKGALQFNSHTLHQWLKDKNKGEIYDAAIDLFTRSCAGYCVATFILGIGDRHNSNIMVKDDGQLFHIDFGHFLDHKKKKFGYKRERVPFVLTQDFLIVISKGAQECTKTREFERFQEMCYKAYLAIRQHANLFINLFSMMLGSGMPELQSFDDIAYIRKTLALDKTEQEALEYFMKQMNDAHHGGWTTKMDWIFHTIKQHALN
Chain of p110α/p85 (P27986 whole entry partner): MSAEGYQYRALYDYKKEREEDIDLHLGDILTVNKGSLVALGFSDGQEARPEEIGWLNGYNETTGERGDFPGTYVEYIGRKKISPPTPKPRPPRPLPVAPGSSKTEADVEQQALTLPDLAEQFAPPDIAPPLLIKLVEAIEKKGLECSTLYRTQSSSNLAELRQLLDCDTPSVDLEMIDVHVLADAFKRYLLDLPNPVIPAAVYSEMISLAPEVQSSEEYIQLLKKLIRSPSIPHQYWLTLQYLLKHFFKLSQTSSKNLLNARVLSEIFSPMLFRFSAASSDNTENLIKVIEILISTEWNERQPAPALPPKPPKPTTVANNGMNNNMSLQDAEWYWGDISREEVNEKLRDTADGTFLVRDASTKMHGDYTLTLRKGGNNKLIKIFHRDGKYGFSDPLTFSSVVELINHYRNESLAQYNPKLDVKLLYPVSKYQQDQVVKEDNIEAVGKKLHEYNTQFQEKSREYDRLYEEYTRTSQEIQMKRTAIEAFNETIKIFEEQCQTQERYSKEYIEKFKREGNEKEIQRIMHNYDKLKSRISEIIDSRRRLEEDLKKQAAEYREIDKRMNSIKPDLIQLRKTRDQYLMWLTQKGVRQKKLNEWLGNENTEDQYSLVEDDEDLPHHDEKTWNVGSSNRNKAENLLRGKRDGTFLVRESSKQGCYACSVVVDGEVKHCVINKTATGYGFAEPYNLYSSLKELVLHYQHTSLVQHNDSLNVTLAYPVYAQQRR

COc1cccc2c1nc(C(F)F)n2-c1nc(-c2ccncc2)nc(N2CCN(C(=O)CCl)CC2)n1 (as salt: hydrochloride) [Example 6, 1-[4-[4-(chloroacetyl)-1-piperazinyl]-6-(4-pyridinyl)-1,3,5-triazin-2-yl]-2-(difluoromethyl)-4-methoxy-1H-benzimidazole]
melting point: > 300 °C

CN(C)CCCOc1cccc2c1nc(C(F)F)n2-c1nc(N2CCOCC2)nc(N2CCN(S(=O)(=O)CCl)CC2)n1 (as salt: hydrochloride) [Example 13]
melting point: 243 to 247 °C

CN(C)CCCOc1cccc2c1nc(C(F)F)n2-c1nc(N2CCOCC2)nc(N(C)C2CCN(C(=O)CCl)CC2)n1 (as salt: hydrochloride) [Example 20, N-[1-(chloroacetyl)-4-piperidinyl]-4-{2-(difluoromethyl)-4-[3-(dimethylamino)propoxy]-1H-benzimidazol-1-yl}-N-methyl-6-(4-morpholinyl)-1,3,5-triazin-2-amine]
melting point: 128 °C (dec.)

O=C(CCl)N1CCN(c2nc(-c3cccc(O)c3)nc(N3CCOCC3)n2)CC1 [Example 1, 3-[4-[4-(chloroacetyl)-1-piperazinyl]-6-(4-morpholinyl)-1,3,5-triazin-2-yl]phenol]
melting point: 242 to 245 °C

CCOc1cccc2c1nc(C(F)F)n2-c1nc(N2CCOCC2)nc(N2CCN(C(=O)CCl)CC2)n1 [Example 2, 1-[4-[4-(chloroacetyl)-1-piperazinyl]-6-(4-morpholinyl)-1,3,5-triazin-2-yl]-2-(difluoromethyl)-4-ethoxy-1H-benzimidazole]
melting point: 217 to 219 °C

O=C(CCl)N1CCN(c2nc(N3CCOCC3)nc(-n3c(C(F)F)nc4ccccc43)n2)CC1 [Example 3, 1-[4-[4-(Chloroacetyl)-1-piperazinyl]-6-(4-morpholinyl)-1,3,5-triazin-2-yl]-2-(difluoromethyl)-1H-benzimidazole]
melting point: 189 to 191 °C

O=C(CCl)N1CCN(c2nc(N3CCOCC3)nc(-n3c(C(F)F)nc4c(O)cccc43)n2)CC1 [Example 5, 1-[4-[4-(Chloroacetyl)-1-piperazinyl]-6-(4-morpholinyl)-1,3,5-triazin-2-yl]-2-(difluoromethyl)-1H-benzimidazol-4-ol]
melting point: 267 to 270 °C

COc1cccc2c1nc(C(F)F)n2-c1nc(N2CCOCC2)nc(N2CCN(C(=O)C(Cl)Cl)CC2)n1 [Example 7, 1-[4-[4-(dichloroacetyl)-1-piperazinyl]-6-(4-morpholinyl)-1,3,5-triazin-2-yl]-2-(difluoromethyl)-4-methoxy-1H-benzimidazole]
melting point: 275 to 278 °C

COc1cccc2c1nc(C(F)F)n2-c1nc(N2CCOCC2)nc(N2CCN(C(=O)C(Cl)(Cl)Cl)CC2)n1 [Example 8, 2-(difluoromethyl)-1-{4-(4-morpholinyl)-6-[4-(trichloroacetyl)-1-piperazinyl]-1,3,5-triazin-2-yl}-1H-benzimidazol-4-yl methyl ether]
IC50 [1]: < 100 nM

COc1cccc2c1nc(C(F)F)n2-c1nc(N2CCOCC2)nc(N2CCN(C(=O)COS(C)(=O)=O)CC2)n1 [Example 9, 2-{4-[4-[2-(difluoromethyl)-4-methoxy-1H-benzimidazol-1-yl]-6-(4-morpholinyl)-1,3,5-triazin-2-yl]-1-piperazinyl}-2-oxoethyl methanesulfonate]
melting point: 176 to 180 °C | IC50 [1]: < 100 nM

COc1cccc2c1nc(C(F)F)n2-c1nc(N2CCOCC2)nc(N2CCN(C(=O)C(C)Cl)CC2)n1 (centres unmarked) [Example 10, 1-[4-[4-(2-chloropropanoyl)-1-piperazinyl]-6-(4-morpholinyl)-1,3,5-triazin-2-yl]-2-(difluoromethyl)-4-methoxy-1H-benzimidazole]
IC50 [1]: < 100 nM

COc1cccc2c1nc(C(F)F)n2-c1nc(N2CCOCC2)nc(N2CCN(S(=O)(=O)CCl)CC2)n1 [Example 11, 1-[4-{4-[(chloromethyl)sulfonyl]-1-piperazinyl}-6-(4-morpholinyl)-1,3,5-triazin-2-yl]-2-(difluoromethyl)-4-methoxy-1H-benzimidazole]
melting point: 261 to 263 °C | IC50 [1]: < 100 nM

COc1cccc2c1nc(C(F)F)n2-c1nc(N2CCOCC2)nc(N2CCN(S(=O)(=O)CBr)CC2)n1 [Example 12, 1-[4-{4-[(bromomethyl)sulfonyl]-1-piperazinyl}-6-(4-morpholinyl)-1,3,5-triazin-2-yl]-2-(difluoromethyl)-4-methoxy-1H-benzimidazole]
melting point: 259 to 262 °C | IC50 [1]: < 100 nM

CN(C)CCCOc1cccc2c1nc(C(F)F)n2-c1nc(N2CCOCC2)nc(N2CCN(S(=O)(=O)CCl)CC2)n1 [Example 13]
IC50 [1]: > 1000 nM

COc1cccc2c1nc(C(F)F)n2-c1nc(N2CCOCC2)cc(N2CCN(S(=O)(=O)CCl)CC2)n1 [Example 14, 1-[4-{4-[(chloromethyl)sulfonyl]-1-piperazinyl}-6-(4-morpholinyl)-2-pyrimidinyl]-2-(difluoromethyl)-4-methoxy-1H-benzimidazole]
melting point: 229 to 232 °C | IC50 [1]: < 100 nM

COc1cccc2c1nc(C(F)F)n2-c1cc(N2CCN(S(=O)(=O)CCl)CC2)nc(N2CCOCC2)n1 [Example 15, 1-[6-{4-[(chloromethyl)sulfonyl]-1-piperazinyl}-2-(4-morpholinyl)-4-pyrimidinyl]-2-(difluoromethyl)-4-methoxy-1H-benzimidazole]
melting point: 220 to 222 °C | IC50 [1]: 100 to 1000 nM

COc1cccc2c1nc(C(F)F)n2-c1cc(N2CCOCC2)nc(N2CCN(S(=O)(=O)CCl)CC2)n1 [Example 16, 1-[2-{4-[(chloromethyl)sulfonyl]-1-piperazinyl}-6-(4-morpholinyl)-4-pyrimidinyl]-2-(difluoromethyl)-4-methoxy-1H-benzimidazole]
melting point: 215 to 218 °C | IC50 [1]: < 100 nM

COc1cccc2c1nc(C(F)F)n2-c1nc(C2CCN(C(=O)CCl)CC2)nc(N2CCOCC2)n1 [Example 17, 1-[4-[1-(chloroacetyl)-4-piperidinyl]-6-(4-morpholinyl)-1,3,5-triazin-2-yl]-2-(difluoromethyl)-4-methoxy-1H-benzimidazole]
melting point: 241 to 243 °C | IC50 [1]: < 100 nM

COc1cccc2c1nc(C(F)F)n2-c1nc(NC2CCN(C(=O)CCl)CC2)nc(N2CCOCC2)n1 [Example 18, N-[1-(chloroacetyl)-4-piperidinyl]-4-[2-(difluoromethyl)-4-methoxy-1H-benzimidazol-1-yl]-6-(4-morpholinyl)-1,3,5-triazin-2-amine]
melting point: 270 to 273 °C | IC50 [1]: < 100 nM

COc1cccc2c1nc(C(F)F)n2-c1nc(N2CCOCC2)nc(N(C)C2CCN(C(=O)CCl)CC2)n1 [Example 19, N-[1-(chloroacetyl)-4-piperidinyl]-4-[2-(difluoromethyl)-4-methoxy-1H-benzimidazol-1-yl]-N-methyl-6-(4-morpholinyl)-1,3,5-triazin-2-amine]
melting point: 211 to 213 °C | IC50 [1]: < 100 nM

CN(C)CCCOc1cccc2c1nc(C(F)F)n2-c1nc(N2CCOCC2)nc(N(C)C2CCN(C(=O)CCl)CC2)n1 [Example 20, N-[1-(chloroacetyl)-4-piperidinyl]-4-{2-(difluoromethyl)-4-[3-(dimethylamino)propoxy]-1H-benzimidazol-1-yl}-N-methyl-6-(4-morpholinyl)-1,3,5-triazin-2-amine]
IC50 [1]: 100 to 1000 nM

CN(C)CCCOc1cccc2c1nc(C(F)F)n2-c1nc(N2CCOCC2)nc(N2CCC(N(C)C(=O)CCl)CC2)n1 [Example 24, 2-chloro-N-{1-[4-{2-(difluoromethyl)-4-[3-(dimethylamino)propoxy]-1H-benzimidazol-1-yl}-6-(4-morpholinyl)-1,3,5-triazin-2-yl]-4-piperidinyl}-N-methylacetamide]
IC50 [1]: 100 to 1000 nM

COc1cccc2c1nc(C(F)F)n2-c1nc(N2CCOCC2)nc(N2CC[C@H](NC(=O)CCl)C2)n1 [Example 26, 2-chloro-N-{(3S)-1-[4-[2-(difluoromethyl)-4-methoxy-1H-benzimidazol-1-yl]-6-(4-morpholinyl)-1,3,5-triazin-2-yl]pyrrolidinyl}acetamide]
IC50 [1]: < 100 nM

COc1cccc2c1nc(C(F)F)n2-c1nc(N2CCOCC2)nc(N2CCC[C@H](N(C)C(=O)CCl)C2)n1 [Example 36, 2-chloro-N-{(3S)-1-[4-[2-(difluoromethyl)-4-methoxy-1H-benzimidazol-1-yl]-6-(4-morpholinyl)-1,3,5-triazin-2-yl]piperidinyl}-N-methylacetamide]
IC50 [1]: < 100 nM

COc1cccc2c1nc(C(F)F)n2-c1nc(N[C@H]2CCCN(C(=O)CCl)C2)nc(N2CCOCC2)n1 [Example 38]
IC50 [1]: < 100 nM

CN(C)CCCOc1cccc2c1nc(C(F)F)n2-c1nc(OC2CCN(C(=O)CCl)CC2)nc(N2CCOCC2)n1 [Example 46, 3-{[1-[4-{[1-(chloroacetyl)-4-piperidinyl]oxy}-6-(4-morpholinyl)-1,3,5-triazin-2-yl]-2-(difluoromethyl)-1H-benzimidazol-4-yl]oxy}-N,N-dimethyl-1-propanamine]
IC50 [1]: 100 to 1000 nM
